In ChEMBL document CHEMBL3885861, “Open TG-GATES”:

Species on record: Rattus norvegicus
Assay: Open TG-GATES - Regimen: Single
Assay type: toxicity, organism-based, Sprague-Dawley
Design: regimen Single, gender Male, age 6 weeks
Conditions: in vivo, po, 100 mg/kg, route gavage, dose level Low; for APTT / Bas / Eos / Fbg / Hb / Ht / Lym / MCH / MCHC / MCV / Mono / Neu / PT / Plat / RBC / Ret / WBC: tissue Blood; for KIDNEY_L / KIDNEY_R / KIDNEY_TOTAL: tissue Kidney; for LIVER: tissue Liver; for A/G / ALP / ALT / AST / BUN / CRE / Ca / Cl / DBIL / GLC / IP / K / LDH / Na / PL / RALB / TBIL / TC / TG / TP / gamma-GTP: tissue Plasma

Question: Which results are given for `COC1=CC(=O)C[C@@H](C)[C@]12Oc1c(Cl)c(OC)cc(OC)c1C2=O` [GRISEOFULVIN]?
Answer: TERMINAL_BW (3 h): 211.4 g; APTT (3 h): 18.7 s; Bas (3 h): 0%; Eos (3 h): 0.8%; Fbg (3 h): 213 mg/dL; Hb (3 h): 13 g/dL; Ht (3 h): 37.9%; Lym (3 h): 77%; MCH (3 h): 21.6 pg; MCHC (3 h): 34.3%; MCV (3 h): 63.2 fL; Mono (3 h): 2.8%; Neu (3 h): 19%; PT (3 h): 13 s; Plat (3 h): 121.7 x10_4/uL; RBC (3 h): 600 x10_4/ul; Ret (3 h): 8%; WBC (3 h): 116.5 x10_2/uL; KIDNEY_L (3 h): 0.9 g; KIDNEY_R (3 h): 1 g; KIDNEY_TOTAL (3 h): 1.9 g; LIVER (3 h): 9.4 g; A/G (3 h): 1.7; ALP (3 h): 1005.8 IU/L; ALT (3 h): 37.8 IU/L; AST (3 h): 66.8 IU/L; BUN (3 h): 10.2 mg/dL; CRE (3 h): 0.3 mg/dL; Ca (3 h): 10.9 mg/dL; Cl (3 h): 104.2 meq/L; DBIL (3 h): 0.2 mg/dL; GLC (3 h): 181.4 mg/dL; IP (3 h): 8.8 mg/dL; K (3 h): 3.7 meq/L; LDH (3 h): 130.4 IU/L; Na (3 h): 141.6 meq/L; PL (3 h): 164 mg/dL; RALB (3 h): 3.4 g/dL; TBIL (3 h): 0.3 mg/dL; TC (3 h): 80.6 mg/dL; TG (3 h): 131.4 mg/dL; TP (3 h): 5.4 g/dL; gamma-GTP (3 h): 0.8 IU/L; TERMINAL_BW (6 h): 209.8 g; APTT (6 h): 17.8 s; Bas (6 h): 0%; Eos (6 h): 1%; Fbg (6 h): 218 mg/dL; Hb (6 h): 13.3 g/dL; Ht (6 h): 38.8%; Lym (6 h): 75.6%; MCH (6 h): 22 pg; MCHC (6 h): 34.3%; MCV (6 h): 64.2 fL; Mono (6 h): 3%; Neu (6 h): 20%; PT (6 h): 13 s; Plat (6 h): 135.7 x10_4/uL; RBC (6 h): 604.8 x10_4/ul; Ret (6 h): 8%; WBC (6 h): 100.3 x10_2/uL; KIDNEY_L (6 h): 0.9 g; KIDNEY_R (6 h): 0.9 g; KIDNEY_TOTAL (6 h): 1.9 g; LIVER (6 h): 9.1 g; A/G (6 h): 1.8; ALP (6 h): 1063.4 IU/L; ALT (6 h): 38.6 IU/L; AST (6 h): 70.8 IU/L; BUN (6 h): 10 mg/dL; CRE (6 h): 0.4 mg/dL; Ca (6 h): 10.8 mg/dL; Cl (6 h): 103.4 meq/L; DBIL (6 h): 0.094 mg/dL; GLC (6 h): 200.4 mg/dL; IP (6 h): 9.7 mg/dL; K (6 h): 4 meq/L; LDH (6 h): 179.4 IU/L; Na (6 h): 141 meq/L; PL (6 h): 148.4 mg/dL; RALB (6 h): 3.4 g/dL; TBIL (6 h): 0.2 mg/dL; TC (6 h): 80.8 mg/dL; TG (6 h): 48.6 mg/dL; TP (6 h): 5.4 g/dL; gamma-GTP (6 h): 1.6 IU/L; TERMINAL_BW (9 h): 207.5 g; APTT (9 h): 18.1 s; Bas (9 h): 0%; Eos (9 h): 1%; Fbg (9 h): 222.6 mg/dL; Hb (9 h): 13.2 g/dL; Ht (9 h): 38.8%; Lym (9 h): 74.8%; MCH (9 h): 21.4 pg; MCHC (9 h): 34.1%; MCV (9 h): 62.9 fL; Mono (9 h): 2.2%; Neu (9 h): 22%; PT (9 h): 13.3 s; Plat (9 h): 123.9 x10_4/uL; RBC (9 h): 617.8 x10_4/ul; Ret (9 h): 7.5%; WBC (9 h): 96 x10_2/uL; KIDNEY_L (9 h): 1 g; KIDNEY_R (9 h): 0.9 g; KIDNEY_TOTAL (9 h): 1.9 g; LIVER (9 h): 8.6 g; A/G (9 h): 1.7; ALP (9 h): 994.6 IU/L; ALT (9 h): 34.4 IU/L; AST (9 h): 64.2 IU/L; BUN (9 h): 9.8 mg/dL; CRE (9 h): 0.3 mg/dL; Ca (9 h): 10.4 mg/dL; Cl (9 h): 103.6 meq/L; DBIL (9 h): 0.078 mg/dL; GLC (9 h): 199.6 mg/dL; IP (9 h): 10.3 mg/dL; K (9 h): 3.9 meq/L; LDH (9 h): 101 IU/L; Na (9 h): 142 meq/L; PL (9 h): 138.2 mg/dL; RALB (9 h): 3.4 g/dL; TBIL (9 h): 0.1 mg/dL; TC (9 h): 72.6 mg/dL; TG (9 h): 48 mg/dL; TP (9 h): 5.4 g/dL; gamma-GTP (9 h): 1.2 IU/L; TERMINAL_BW (24 h): 224.8 g; APTT (24 h): 19.6 s; Bas (24 h): 0%; Eos (24 h): 1%; Fbg (24 h): 222.4 mg/dL; Hb (24 h): 13.4 g/dL; Ht (24 h): 40.6%; Lym (24 h): 77.6%; MCH (24 h): 21.5 pg; MCHC (24 h): 33.1%; MCV (24 h): 64.8 fL; Mono (24 h): 3.2%; Neu (24 h): 17.4%; PT (24 h): 13.1 s; Plat (24 h): 117.6 x10_4/uL; RBC (24 h): 626.6 x10_4/ul; Ret (24 h): 7.2%; WBC (24 h): 107.9 x10_2/uL; KIDNEY_L (24 h): 1 g; KIDNEY_R (24 h): 1 g; KIDNEY_TOTAL (24 h): 2 g; LIVER (24 h): 10.8 g; A/G (24 h): 1.5; ALP (24 h): 926.8 IU/L; ALT (24 h): 41.8 IU/L; AST (24 h): 69.4 IU/L; BUN (24 h): 14.4 mg/dL; CRE (24 h): 0.4 mg/dL; Ca (24 h): 11 mg/dL; Cl (24 h): 103.4 meq/L; DBIL (24 h): 0.1 mg/dL; GLC (24 h): 215.8 mg/dL; IP (24 h): 8.5 mg/dL; K (24 h): 4.2 meq/L; LDH (24 h): 146.6 IU/L; Na (24 h): 141.8 meq/L; PL (24 h): 136.4 mg/dL; RALB (24 h): 3.3 g/dL; TBIL (24 h): 0.2 mg/dL; TC (24 h): 71 mg/dL; TG (24 h): 95 mg/dL; TP (24 h): 5.5 g/dL; gamma-GTP (24 h): 1.4 IU/L
